Laboratory results: US20200281897A1, “INDAZOLE DERIVATIVES FOR CANCER TREATMENT” (Servicio Andaluz de Salud, priority 2016, published 2020)

What was measured:
Format in all cases: cell-based, human
MM1S = experiment: MTT cell viability assay, myeloma cell line MM1S; conditions: MM1S, MTT, 18 hours, doses 0-50 μM; read-out: IC50, cell viability
Protocol: (§1) In vitro studies were carried out using six different human MM cell lines, U266, RPMI8226, MM1S, MM1R, U266-LR7, and RPMI-LR5. For ex vivo assays, human primary cells from healthy donors and MM patients were used (Table 1). Human MM cell lines U266, RPMI8226, and MM1.S were acquired from ATCC and lines U266-LR7, RPMI-LR5, and MM1.R were kindly provided by Dr. Enrique Ocio (Hospital Universitario de Salamanca, Spain). The primary cells were obtained from bone marrow (BM) aspirates or peripheral blood (PB) samples, and the peripheral blood mononuclear cells (PBMCs) were isolated by Ficoll-Hypaque centrifugation and washed twice in phosphate buffered saline (PBS) containing 1% BSA. Hematopoietic stem cells and B and T lymphocytes were isolated from healthy PB donors by positive immunomagnetic separation using human MACS CD34+, CD19+, and CD3+ microbeads, respectively. MM plasma cells were obtained from the bone marrow (BM) of patients with an infiltration of cells of more than 30% (Table 1). The MM plasma cells were identified using CD138+, and were then distinguished from the other cell populations by flow cytometry using a suitable combination of antibodies: anti-human CD64-FITC, CD34-PE, CD56-APC, CD38-APC-H7, and CD45-Pacific Blue antibodies (BD Biosciences, San Jose, Calif.). All the cell lines were cultured in RPMI-1640 supplemented with 10% fetal bovine serum (FBS) and 1% penicillin/streptomycin, as recommended by the supplier. For human primary cells, the concentration of FBS was up to 20%.
(§2) The MM cell lines and primary cells were exposed to different doses of indazole compounds, and viability was evaluated at 18, 48, and 72 hours. Pretreatments with the ceramide synthesis inhibitor (FB1), pan-caspase (ZVAD-FMK), and CB antagonists (PGN-8, PGN-37, and PGN-70) were performed for 30 minutes, and then the cells were incubated with indazole compound WIN-55 up to 18 hours. Cell viability was determined using the MTT assay Cell Counting Kit-8 (Dojindo, Kumamoto, Japan) according to the manufacturer's instructions.

KG-1 = experiment: WST-1 cell viability assay, KG-1; conditions: KG-1, 18 hours
Protocol: (§3) U937, NB-4, KG-1, and MOLM-13 (DMSZ, Braunschweig, Germany) were cultured in complete RPMI 1640 medium (with 2 mM of L-glutamine, 100 mg of penicillin, 100 μg/ml of streptomycin, and with 10% FBS), supplemented with 10 mM HEPES, 1×NaPuvuvato, and 1× non-essential amino acids.
(§4) The cell lines and primary cells were cultured in 96-well plates (5×10e5 cells per well) with the addition of the indicated concentrations of WIN 55,212-2 or PGN cannabinoids in DMSO or with the solvent only in triplicate at 18, 48, and 72 hours. Caspase inhibitor Z-VAD (OMe)-FMK or the CB2 receptor antagonist PGN-8, -37, and -70, together with the cannabinoid WIN-55,212-2, were also added. Cell viability was determined by means of the WST-1 assay [2-(4-iodophenyl)-3-(4-nitrophenyl)-5-(2,4-disulfophenyl)-2H-tetrazolium] according to the manufacturer's instructions (Dojindo Molecular Technologies). Optical densities were measured at 450 nm using a Multiskan™ Go Microplate plate reader (Thermo Fisher Scientific, Waltham, Mass., USA).
(§5) Now it will be analyzed whether the exposure to cannabinoids had any effect on the viability of the tumor cells in vitro. […]

HL60 [1] = experiment: Western blot and immunocytofluorescence in HL60 cells
Text: (§6) The detailed methodology for analyzing mitochondrial membrane potential (APm), Western Blot analysis, and immunocytofluorescence analysis has been described elsewhere 29

RPMI-LR5 = experiment: MTT cell viability assay, myeloma cell line RPMI-LR5; conditions: RPMI-LRS, MTT, 18 hours, doses 0-50 μM; read-out: IC50, cell viability
Protocol: as §1, §2

U266-LR7 = experiment: MTT cell viability assay, myeloma cell line U266-LR7; conditions: U266-LR7, MTT, 18 hours, doses 0-50 μM; read-out: IC50, cell viability
Protocol: as §1, §2

HL60 [2] = experiment: Mitochondrial damage and ER stress in HL60 cells; conditions: HL60, 50 μM, 15 and 30 minutes
Protocol: The controls that are untreated and the cells (10^6 cells per assay) treated with WIN-55,212-2 (50 μM) for 15 and 30 minutes at 37° C. were stained with 5 μM MitoSOX probe [Molecular Probes (Invitrogen)] to detect the mitochondrial superoxide. The MitoSOX signal was detected by flow cytometry.
as §6

[3] = tested on: hematopoietic stem cells (CD34+); experiment: Viability of hematopoietic stem cells from healthy donors (MTT); conditions: 0-50 μM, 18 hours
Protocol: as §1, with “The MM plasma cells were identified using CD138+, and were then distinguished from the other cell populations by flow cytometry using a suitable combination of antibodies: anti-human CD64-FITC, CD34-PE, CD56-APC, CD38-APC-H7, and CD45-Pacific Blue antibodies (BD Biosciences, San Jose, Calif.). All the cell lines were cultured in RPMI-1640 supplemented with 10% fetal bovine serum (FBS) and 1% penicillin/streptomycin, as recommended by the supplier. For human primary cells, the concentration of FBS was up to 20%.” left out
The MM cell lines and primary cells were exposed to different doses of indazole compounds, and viability was evaluated at 18, 48, and 72 hours. […] Cell viability was determined using the MTT assay Cell Counting Kit-8 (Dojindo, Kumamoto, Japan) according to the manufacturer's instructions.

U266 [4] = experiment: Cell viability by flow cytometry (annexin V/7-AAD), U266; conditions: U266, 18 hours
Protocol: The cell viability of the MM cell lines and primary cells from healthy PB donors was also evaluated by flow cytometry using 7-AAD/Annexin V. Patient bone marrow (BM) cells were analyzed using 7-AAD with a combination of monoclonal antibodies against myeloma-associated antigens (anti-CD56-APC, anti-CD45-Pacific Blue, and anti-CD38-APC-H7 [BD Biosciences]) and antibodies for distinguishing the granulomonocytic population (anti-CD64-FITC) and lymphocytic population (anti-CD45-Pacific Blue). The cells were acquired by means of FACSCanto II flow cytometer (BD Biosciences) and analyzed using Infinicyt™ Software (Cytognos, Spain).

KG-1a = experiment: WST-1 cell viability assay, KG-1a; conditions: 18 hours
Protocol: (§7) The cell lines of acute myeloid leukemia KG-1a and HL60 (American Type Culture Collection) were cultured in IMDM medium supplemented with 2 mM of L-glutamine, […] of penicillin, 100 μg/ml of streptomycin, and 15% fetal bovine serum (FBS).
as §4
(§8) Now it will be analyzed whether the exposure to cannabinoids had any effect on the viability of the tumor cells in vitro. To that end, the human AML U937, HL60, KG-1a, NB-4, MOLM-13, and KG-1 cell lines were cultured in serum-free medium and exposed to various concentrations of WIN-55,212-2 (range of 100 nM to 50 μM) for 18 hours, and cell viability was measured by means of WST-1 assays (Table 1). […]

HL60 [5] = experiment: WST-1 cell viability assay, HL60; conditions: HL60, 18 hours
Protocol: as §7, §4, §8

U266 [6] = experiment: MTT cell viability assay, myeloma cell line U266; conditions: U266, MTT, 18 hours, doses 0-50 μM; read-out: IC50, cell viability
Protocol: as §1, §2

U937 = experiment: WST-1 cell viability assay, U937; conditions: U937, 18 hours
Protocol: as §3, §4, §5

CS(=O)(=O)O.Cc1c(C(=O)c2cccc3ccccc23)c2cccc3c2n1[C@H](CN1CCOCC1)CO3 [WIN-55, (R)-(+)-[2,3-dihydro-5-methyl-3-(4-morpholinomethyl)-pyrrolo[1,2,3]-1,4-benzoxazin-6-yl]-1-naphthalenylmethanone mesylate] was tested, and the IC50 (MM1S) was 13.6 µM, the “% viable cells at 50 μM” value (KG-1) was 57.4% and the IC50 (KG-1) was 33.2 µM. For the same compound, the “expression of Bax (immunocytofluorescence)” value (HL60 [1]; HL60) was “considerable increase in Bax”, the “caspase activation pattern (Western blot)” value (HL60 [1]; HL60, 50 μM, 2, 6, 18 and 24 hours) was “activation of various caspases” and the IC50 (RPMI-LR5) was 16.1 µM. The IC50 (U266-LR7) was 17.2 µM, the “mitochondrial damage and ER stress” value (HL60 [2]) was “early mitochondrial damage and ER stress” and the “hematopoietic stem cell viability” value [3] was “not affected”. The IC50 (U266 [4]) was 18.5 µM, the “% viable cells at 50 μM” value (KG-1a) was 42.1% and the IC50 (KG-1a) was 22 µM. For the same compound, the “% viable cells at 50 μM” value (HL60 [5]) was 28.4%, the IC50 (HL60 [5]) was 19.4 µM and the IC50 (U266 [6]) was 17.2 µM. For the same compound, the “% viable cells at 50 μM” value (U937) was 17.2% and the IC50 (U937) was 16 µM.
